In ChEMBL document CHEMBL1123717, “Folate analogues as inhibitors of thymidylate synthase” (J Med Chem, 1987):

Tests used:
Thymidylate synthase [1] = biological target: T1, Thymidylate synthase (Homo sapiens, UniProt P04818); experiment: Inhibitory activity against human thymidylate synthase derived either from HeLa or KB cells; type: cell-based
Thymidylate synthase [2] = biological target: T1, Thymidylate synthase; experiment: Ability to inhibit thymidylate synthase derived from human leukemia K562 cells; type: cell-based
Thymidylate synthase [3] = biological target: T2, Thymidylate synthase (Lactobacillus casei, UniProt P00469); experiment: Ability to inhibit thymidylate synthase derived from Lactobacillus casei; parameters: species or system Lacticaseibacillus casei
T2 sequence (P00469 whole entry): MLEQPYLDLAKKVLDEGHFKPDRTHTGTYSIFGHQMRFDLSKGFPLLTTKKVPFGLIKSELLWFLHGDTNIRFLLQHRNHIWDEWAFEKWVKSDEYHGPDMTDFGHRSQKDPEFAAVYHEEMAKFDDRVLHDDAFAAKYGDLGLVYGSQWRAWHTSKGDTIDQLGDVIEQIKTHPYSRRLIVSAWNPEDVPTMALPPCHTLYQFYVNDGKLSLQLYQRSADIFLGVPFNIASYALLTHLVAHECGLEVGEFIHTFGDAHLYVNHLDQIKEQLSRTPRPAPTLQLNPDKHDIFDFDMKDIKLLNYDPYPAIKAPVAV

Thymidylate synthase [4] = biological target: T1, Thymidylate synthase; experiment: Inhibitory constant of thymidylate synthase was determined in human AML cells; type: cell-based

T1 sequence (P04818 whole entry): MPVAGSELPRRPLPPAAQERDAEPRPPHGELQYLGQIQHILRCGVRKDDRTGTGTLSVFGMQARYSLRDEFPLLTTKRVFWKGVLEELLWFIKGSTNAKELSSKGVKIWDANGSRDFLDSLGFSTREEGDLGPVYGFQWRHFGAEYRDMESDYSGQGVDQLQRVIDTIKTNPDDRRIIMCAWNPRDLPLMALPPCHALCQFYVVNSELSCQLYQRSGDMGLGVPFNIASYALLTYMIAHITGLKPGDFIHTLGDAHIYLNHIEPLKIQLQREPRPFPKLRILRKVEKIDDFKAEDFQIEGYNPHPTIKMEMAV

| Compound | IC50 (Thymidylate synthase [2]) | other results |
| --- | --- | --- |
| C#CN(Cc1cnc2nc(N)nc(N)c2n1)c1ccc(C(=O)NC(CCC(=O)O)C(=O)O)cc1 (stereo unspecified) | – | IC50 (Thymidylate synthase [1]): 20 nM |
| CN(Cc1cnc2nc(N)[nH]c(=O)c2n1)c1ccc(C(=O)N[C@@H](CCC(=O)O)C(=O)O)cc1 [METHOPTERINE] | – | Ki (Thymidylate synthase [4]): 1000 nM |
| Nc1nc(O)c2nc(CNc3ccc(C(=O)N[C@@H](CCC(=O)O)C(=O)O)cc3)ccc2n1 | 55000 nM | – |
| Nc1nc2ncc(CNc3ccc(C(=O)N[C@@H](CCC(=O)O)C(=O)O)cc3)nc2c(=O)[nH]1 [FOLIC ACID] | 290000 nM | Ki (Thymidylate synthase [4]): 40000 nM |
| C#CCN(Cc1ccc2nc(N)nc(N)c2n1)c1ccc(C(=O)NC(CCC(=O)O)C(=O)O)cc1 (stereo unspecified) | 1260 nM | – |

Further lines, with some results ahead:

| IC50 (Thymidylate synthase [2]) | Compound | other results |
| --- | --- | --- |
| 5500 nM | C#CCN(Cc1cnc2nc(N)[nH]c(=O)c2n1)c1ccc(C(=O)N[C@@H](CCC(=O)O)C(=O)O)cc1 | IC50 (Thymidylate synthase [3]): 3900 nM |
| 290 nM | CN(Cc1ccc2nc(N)[nH]c(=O)c2c1)c1ccc(C(=O)N[C@@H](CCC(=O)O)C(=O)O)cc1 | – |
| 2400 nM | C#CCN(Cc1ccc2nc(N)[nH]c(=O)c2n1)c1ccc(C(=O)N[C@@H](CCC(=O)O)C(=O)O)cc1 | – |
| 2500 nM | CN(Cc1ccc2nc(N)[nH]c(=O)c2n1)c1ccc(C(=O)N[C@@H](CCC(=O)O)C(=O)O)cc1 | – |
